Patent US11129840B2, “Methods for identifying novel dosing regimens” (Zavante Therapeutics, Inc., priority 2017, dated 2021)
Values after ≈ are worked out from the molar mass of the structure shown. Where two headings read alike, the source gives them in different places.

Tests used:
[1] = Phase I safety and tolerability in healthy adult subjects; format: in vivo, human
Experimental: (§1) Materials/methods: Phase I, open-label study evaluating IV (ZTI-01) and PO (Monurol®) FOS in healthy adult subjects. […] Blood and urine samples were collected serially before and through 48 hours post-dose and analyzed via LC/MS-MS. Noncompartmental analyses were performed via WinNonlin. Safety was monitored throughout the course of the study.

MER-NS PSA = test: Reference agar dilution MIC, resistant SENTRY isolates; format: cell-based, Pseudomonas aeruginosa
Experimental: (§2) Utilizing existing interpretative criteria for the marketed oral agent (dosed at 3 g) for analysis purposes, FOS susceptibility (S) was determined for recent resistant GN and GP clinical isolates including vancomycin-resistant Enterococcus faecium (VREM) and E. faecalis (VREF); methicillin-resistant Staphylococcus aureus (MRSA) and MR coagulase negative staphylococci (MR-CoNS), Escherichia coli (EC) and Klebsiella pneumoniae (KPN) containing extended spectrum beta-lactamases (ESBL) or were carbapenem resistant (CR); and), Pseudomonas aeruginosa (PSA) non-susceptible to ceftazidime (CAZ-NS) or to meropenem (MER-NS). […] Isolates were collected from hospitalized patients in the US as a part of the SENTRY surveillance program, 2013-2015.

CAZ-NS PSA = test: as above; format: cell-based, Pseudomonas aeruginosa
Experimental: as §2

[2] = tested on: Carbapenem-resistant Enterobacteriaceae (CRE) clinical isolates; test: Agar dilution susceptibility, CRE clinical isolates; format: cell-based
[3] = tested on: K. pneumoniae (KPC-producer) isolate; test: Time-kill kinetic analysis; format: cell-based, Klebsiella pneumoniae
Experimental: TKK were sampled for colony counts at T0, T2, T4, T8 and T24 hours (h). Two Klebsiella pneumoniae isolates (one KPC and one ESBL), two Pseudomonas aeruginosa isolates (non-MDR), and one Acinetobacter baumannii isolate (MDR) were tested.

[4] = Phase I single dose pharmacokinetics in healthy adult subjects; format: in vivo, human; settings: for half-life / CL renal / Vd / AUC(0-inf) / Cmax / Tmax: plasma
Experimental: as §1

KPN with ESBL phenotype = test: Reference agar dilution MIC, resistant SENTRY isolates; format: cell-based, Klebsiella pneumoniae
Experimental: (§3) Utilizing existing interpretative criteria for the marketed oral agent (dosed at 3 g) for analysis purposes, FOS susceptibility (S) was determined for recent resistant GN and GP clinical isolates including vancomycin-resistant Enterococcus faecium (VREM) and E. faecalis (VREF); methicillin-resistant Staphylococcus aureus (MRSA) and MR coagulase negative staphylococci (MR-CoNS), Escherichia coli (EC) and Klebsiella pneumoniae (KPN) containing extended spectrum beta-lactamases (ESBL) or were carbapenem resistant (CR); and), Pseudomonas aeruginosa (PSA) non-susceptible to ceftazidime (CAZ-NS) or to meropenem (MER-NS).

CR-KPN = test: as above; format: cell-based, Klebsiella pneumoniae
Experimental: as §3

[5] = tested on: Meropenem-NS PSA (MDR PSA isolates); test: FOF MIC by ETEST; format: cell-based; settings: Pseudomonas aeruginosa
Experimental: Meropenem-NS PSA obtained from US hospitals were studied. MICs of all antibiotics except FOF were previously determined by broth microdilution; FOF MIC was determined by ETEST® antibiotic gradient diffusion strip prior to conducting synergy assessments between FOF and aztreonam (ATM), cefepime (FEP), ceftazidime (CAZ), meropenem (MEM), piperacillin/tazobactam (TZP), and tobramycin (TOB). […] Of note, Liofilchem® MIC Test Strip was used for TZP due to commercial availability. Only organisms that were NS to the 2nd drug were assessed for synergy.

[6] = tested on: methicillin-resistant Staphylococcus aureus (MRSA); test: Reference agar dilution MIC, resistant SENTRY isolates; format: cell-based
Experimental: as §2

[7] = tested on: EC with an ESBL phenotype; test: as above; format: cell-based; settings: Escherichia coli
Experimental: as §2

[8] = tested on: MR coagulase negative staphylococci (MR-CoNS); test: as above; format: cell-based
Experimental: as §2

[9] = tested on: vancomycin-resistant Enterococcus faecium (VREM); test: as above; format: cell-based
Experimental: as §2

[10] = tested on: 5 EC (4 ESBL), 3 KPN (2 CR), and 2 PSA; test: MIC by agar dilution, isolates of the thigh infection study; format: cell-based; settings: 10 isolates
Experimental: 5 EC (4 ESBL), 3 KPN (2 CR), and 2 PSA were used. MICs were determined by agar dilution. […] PK/PD index determination was performed using a dose fractionation (DF) study design. […] The dose-response data was analyzed using the Emax Hill equation.

[11] = human, in vivo, 3 g PO (Monurol), mean ± SD
[12] = human, 1 g IV (ZTI-01), mean ± SD
[13] = human, 3 g PO (Monurol), mean ± SD
[14] = human, 8 g IV (ZTI-01), mean ± SD
[15] = Klebsiella pneumoniae, 17 CR-KPN

Compound: C[C@@H]1O[C@@H]1P(=O)(O)O [FOS, fosfomycin]
- share of TEAE that occurred after the 8 g IV dose ([1]; 8 g IV): 67.9%
- hypocalcemia (most common TEAE) ([1]; after 1 g IV): 17.9%
- bradycardia (most common TEAE) ([1]; after 8 g IV): 28.6%
- % of subjects reporting a treatment-emergent adverse event (TEAE) ([1]; all regimens): 80%
- severity of TEAEs ([1]; all regimens, resolved without sequelae): mild-moderate
- headache (most common FOS-related TEAE) ([1]; human, in vivo): 10.7%
- MIC (MER-NS PSA; Pseudomonas aeruginosa): > 256 µg/mL
- MIC90 (MER-NS PSA; Pseudomonas aeruginosa): 128 µg/mL (≈ 927 µM)
- MIC50 (MER-NS PSA; Pseudomonas aeruginosa, 42 MER-NS PSA): 64 µg/mL (≈ 464 µM)
- No. of isolates with FOS MIC≤64 μg/mL (MER-NS PSA; of 42 MER-NS PSA): 34
- MIC (CAZ-NS PSA; Pseudomonas aeruginosa): > 256 µg/mL
- MIC90 (CAZ-NS PSA; Pseudomonas aeruginosa): 128 µg/mL (≈ 927 µM)
- MIC50 (CAZ-NS PSA; Pseudomonas aeruginosa, 38 CAZ-NS PSA): 64 µg/mL (≈ 464 µM)
- No. of isolates with FOS MIC≤64 μg/mL (CAZ-NS PSA; of 38 CAZ-NS PSA): 32
- % of isolates susceptible to FOS [2]: 94%
- MIC90 [2]: 512 µg/mL (≈ 3710 µM)
- MIC50 ([2]; 50 isolates): 2 µg/mL (≈ 14.5 µM)
- MIC range ([2]; C-A R isolates): 1 to 64 µg/mL
- MIC ([2]; C-A R isolates, read-out: Median MIC): 8 µg/mL (≈ 57.9 µM)
- MIC ([2]; FOS R isolate with fosA2 and SNP in glpT, read-out: MIC): 256 µg/mL (≈ 1850 µM)
- MIC ([2]; FOS-R isolate harboring fosA3, read-out: MIC): > 1020 µg/mL
- MIC ([2]; third FOS-R isolate (OXA-181+, CTXM-15+Kp), read-out: MIC): 128 µg/mL (≈ 927 µM)
- increase in bacterial growth ([3]; FOS 0.5, 1 and 2×MIC, by 24 h): approximately 2 log10
- log10 reduction in bacterial growth (CFU) ([3]; FOS 2×MIC, by 4 h): > 3 log10
- killing activity ([3]; FOS alone): bactericidal
- fraction of the dose excreted in urine after 48 hours ([4]; 1 g IV): 74%
- CLT ([4]; 1 g IV (ZTI-01), mean ± SD): 8.7 ± 1.7 L/h
- fraction of the dose excreted in urine after 48 hours ([4]; 3 g PO): 37%
- CLT/F ([4]; 3 g PO (Monurol), mean ± SD): 17.0 ± 4.7 L/h
- fraction of the dose excreted in urine after 48 hours ([4]; 8 g IV): 80%
- CLT ([4]; 8 g IV (ZTI-01), mean ± SD): 7.8 ± 1.4 L/h
- dose dependence of plasma PK ([4]; between the 1 g and 8 g IV doses): approximately linear and proportional
- half-life ([4]; human, in vivo, 1 g IV (ZTI-01), mean ± SD): 2.4 ± 0.4 h
- Vd/F [4, 11]: 204 ± 70.7 L
- half-life [4, 11]: 9.04 ± 4.5 h
- half-life ([4]; human, in vivo, 8 g IV (ZTI-01), mean ± SD): 2.8 ± 0.6 h
- CL renal [4, 12]: 110 mL/min
- Vd [4, 12]: 29.7 ± 5.7 L
- CL renal [4, 13]: 108 mL/min
- CL renal [4, 14]: 105 mL/min
- Vd [4, 14]: 31.5 ± 10.4 L
- AUC(0-inf) [4, 12]: 120 ± 28.5 µg·h/mL
- Cmax [4, 12]: 44300 ± 7600 ng/mL
- Tmax [4, 12]: 1.1 ± 0.05 h
- AUC(0-inf) [4, 13]: 191 ± 57.6 µg·h/mL
- Cmax [4, 13]: 26800 ± 6400 ng/mL
- Tmax [4, 13]: 2.25 ± 0.4 h
- AUC(0-inf) [4, 14]: 1060 ± 192 µg·h/mL
- Cmax [4, 14]: 370000 ± 61900 ng/mL
- Tmax [4, 14]: 1.08 ± 0.01 h
- MIC (KPN with ESBL phenotype; Klebsiella pneumoniae): > 256 µg/mL
- MIC50 (KPN with ESBL phenotype; Klebsiella pneumoniae, 50 KPN): 4 µg/mL (≈ 29 µM)
- MIC90 (KPN with ESBL phenotype; Klebsiella pneumoniae, 50 KPN): 16 µg/mL (≈ 116 µM)
- No. of isolates with FOS MIC≤64 μg/mL (KPN with ESBL phenotype; of 50 KPN): 49
- MIC50 (CR-KPN; [15]): 8 µg/mL (≈ 57.9 µM)
- MIC90 (CR-KPN; [15]): 64 µg/mL (≈ 464 µM)
- No. of isolates with FOS MIC≤64 μg/mL (CR-KPN; of 17 CR-KPN): 16
- MIC (CR-KPN; one isolate): > 256 µg/mL
- MIC90 [5]: > 1020 µg/mL
- MIC50 ([5]; 87 isolates, ETEST): 64 µg/mL
- MIC50 ([6]; 101 MRSA): 4 µg/mL (≈ 29 µM)
- MIC90 ([6]; 101 MRSA): 8 µg/mL (≈ 57.9 µM)
- MIC ([6]; all 101 MRSA): ≤ 64 µg/mL
- MIC [7]: > 256 µg/mL
- MIC50 ([7]; 49 EC): 0.5 µg/mL (≈ 3.62 µM)
- MIC90 ([7]; 49 EC): 4 µg/mL (≈ 29 µM)
- MIC ([7]; remaining isolates, read-out: MIC values): ≤ 32 µg/mL
- MIC ([8]; Staphylococcus capitis): 128 µg/mL (≈ 927 µM)
- MIC ([8]; Staphylococcus hominis): > 256 µg/mL
- No. of isolates with FOS MIC≤64 μg/mL ([8]; of 153 MR-CoNS): 72
- MIC90 ([9]; Enterococcus faecium): 128 µg/mL (≈ 927 µM)
- MIC50 ([9]; Enterococcus faecium, 81 VREM): 64 µg/mL (≈ 464 µM)
- No. of isolates with an MIC 64 μg/mL ([9]; of 81 VREM): 63
- MIC range [10]: 1 to 16 µg/mL
